The structures appear in SMILES notation. Residue numbers refer to the chain shown, from its start. Read-outs that look alike come from different tables or passages of the source.

Assay in all cases: Inhibition of 2-HG production in IDH2 mutant U-87 MG cells
Holding throughout (type): cell-based

One assay has as its target T1, IDH2 R140L (Homo sapiens, UniProt P48735, R140L).
T1 construct: expressed in transfected cells; host or cells: U-87 MG
T1 sequence (P48735 40-452 R140L): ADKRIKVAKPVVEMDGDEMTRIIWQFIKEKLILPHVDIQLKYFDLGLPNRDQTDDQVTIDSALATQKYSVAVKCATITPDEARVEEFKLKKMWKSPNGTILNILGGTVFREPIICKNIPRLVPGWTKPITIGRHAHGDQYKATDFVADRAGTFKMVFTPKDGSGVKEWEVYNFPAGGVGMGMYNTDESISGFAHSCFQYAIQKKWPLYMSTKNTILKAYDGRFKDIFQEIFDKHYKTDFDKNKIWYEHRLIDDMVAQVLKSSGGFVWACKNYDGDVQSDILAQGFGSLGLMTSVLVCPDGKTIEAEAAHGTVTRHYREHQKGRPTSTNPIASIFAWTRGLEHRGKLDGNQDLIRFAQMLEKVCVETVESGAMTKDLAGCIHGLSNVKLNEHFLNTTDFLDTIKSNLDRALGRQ
The note with it: 16 hours incubation, 50K cells/well, 100 μl media/well, read-out: Relative IC50 (nM) Mean, inhibition of 2-HG production.

The target in another assay is T2, IDH2 R140Q (Homo sapiens, UniProt P48735, R140Q).
T2 construct: expressed in transfected cells; host or cells: U-87 MG
T2 sequence (P48735 40-452 R140Q): T1 sequence (P48735 40-452 R140L) with L101Q

A further assay concerns the target T3, IDH2 R172K_G260A cis (Homo sapiens, UniProt P48735, G260A/R172K).
T3 construct: expressed in transfected cells; host or cells: U-87 MG
T3 sequence (P48735 40-452 R172K/G260A): T1 sequence (P48735 40-452 R140L) with L101R, R133K, G221A
The note with it: 16 hours incubation, 50K cells/well, 100 μl media/well, read-out: Relative IC50 (nM) Mean, inhibition of 2-HG production.

For the compound `C=CC(=O)N1CCN([C@@H](CC2CC2)c2ccc([C@H](C)Nc3ncc4c(n3)N(CC)C(=O)OC4)cc2)CC1` [Compound A, 7-[[(1S)-1-[4-[(1S)-2-cyclopropyl-1-(4-prop-2-enoylpiperazin-1-yl)ethyl]phenyl]ethyl]amino]-1-ethyl-4H-pyrimido[4,5-d][1,3]oxazin-2-one], the IC50 was determined as 243 nM on IDH2 R140L; 223 nM on IDH2 R140Q (16 hours incubation, 50K cells/well, 100 μl media/well, read-out: Relative IC50 (nM) Mean, inhibition of 2-HG production); 28.4 nM on IDH2 R140Q (72 hours incubation, 12.5K cells/well, 150 μl media/well, read-out: IC50, inhibition of 2-HG production); 13 nM on IDH2 R172K_G260A cis.

By IC50 is commonly meant the point on the concentration scale where inhibition reaches its midpoint.

The record behind these values is US20240261294A1, “METHOD FOR TREATING IDH INHIBITOR-RESISTANT SUBJECTS” (Eli Lilly and Company, priority 2021, published 2024).
